Source: US8569489B2 (A.B. Intelpharm Limited, priority 2007, dated 2013)
Like-named read-outs stand apart in the source and are kept apart here.

Key:
[1] = test system: H1-histamine receptors (bronchoconstrictor effect of histamine); test: Anesthetized guinea pigs, antagonism of the bronchoconstrictor effect of histamine (histamine bronchospasm model); assay type: in vivo, guinea pig; conditions: for ED50: Cavia porcellus; for Duration of effective blockade of H1-histamine receptors: histamine bronchospasm model, oral dose of 3 mg/kg
Method: In tests on intact animals, substances were administered intravenously (5 minutes before the administration of histamine) and orally (2 hours before the beginning of the study).

[2] = test system: histamine-induced itch; test: Itching induced by instillation of histamine solution into the eye of conscious guinea pigs; assay type: in vivo, guinea pig; conditions: 3 mg/kg administered orally
Source text: (Rukovodstvo po […] [Manual on experimental study of new pharmacological substances], Moscow, 2005, p. 511)

[3] = test system: mice; conditions: mice perorally; literature value (footnotes * and **); cited from earlier work
[4] = test system: isolated guinea pig ileum (spasmogenic effect of histamine); test: Isolated guinea pig ileum, suppression of the spasmogenic effect of histamine; assay type: cell-based; conditions: histamine spasm, read-out: Antihistaminic activity, isolated ileum of guinea pig, IC50
Source text: Study of the antihistaminic activity of the compounds on which a claim is made was done using known methodologies (Rukovodstvo po eksperimental'nomu izucheniyu novykh farmakologicheskikh veshchestv [Manual on experimental study of new pharmacological substances], Moscow, 2005, p. 489) on isolated guinea pig ileum (suppression of the spasmogenic effect of histamine) and on anesthetized guinea pigs (antagonism in relation to the bronchoconstrictor effect of histamine). In tests on intact animals, substances were administered intravenously (5 minutes before the administration of histamine) and orally (2 hours before the beginning of the study).

[5] = test system: passive cutaneous anaphylaxis; test: Passive cutaneous anaphylaxis model in rats; assay type: in vivo, rat; conditions: dose 1 mg/kg
Source text: (Rukovodstvo po eksperimental'nomu izucheniyu novykh farmakologicheskikh veshchestv [Manual on experimental study of new pharmacological substances], Moscow, 2005, p. 511)

[6] = test system: mice; test: Acute toxicity, mice perorally
[7] = pH of aqueous solution of salts; assay type: physicochemical
[8] = Thermal stability

SMILES: CN1CCCC(n2nc(Cc3ccc(Cl)cc3)c3ccccc3c2=O)CC1 (centres unmarked) [Azelastine, reference compound]
- ED50 ([1]; po, anesthetized guinea pigs, orally 2 hours before the study, read-out: Antihistaminic activity, guinea pigs in vivo, peroral administration, ED50): 0.015 mg/kg
- ED50 ([1]; anesthetized guinea pigs, intravenous, 5 minutes before histamine, read-out: Antihistaminic activity, guinea pigs in vivo, intravenous administration, ED50): 0.05 mg/kg
- Duration of effective blockade of H1-histamine receptors [1]: 48 h
- Duration of the protective effect in the histamine-induced itch model [2]: diminishes significantly after 48 hours and disappears altogether after 72 hours
- Acute toxicity, LD50 [3]: 124-139** mg/kg

SMILES: Cn1c(=O)[nH]c(=O)c2c1ncn2CCCCN1CCN(C(c2ccccc2)c2ccccc2)CC1 [II-g, 3-methyl-7-[4-(benzhydryl-4-piperazinyl-1)butyl]xanthine]
- IC50 [4]: 0.018 µM
- Antihistaminic activity, guinea pigs in vivo, intravenous administration, ED50 ([1]; anesthetized guinea pigs, intravenous, 5 minutes before histamine): 0.02 mg/kg
- Antihistaminic activity, guinea pigs in vivo, peroral administration, ED50 ([1]; anesthetized guinea pigs, orally 2 hours before the study): 0.02 mg/kg
- Duration of effective blockade of H1-histamine receptors [1]: 72 h
- Duration of the protective effect in the histamine-induced itch model [2]: remains at a stable level for 2 days and decreases only after 72 hours
- Antiallergic effect, passive cutaneous anaphylactic model [5]: moderate and similar antiallergic effect
- Acute toxicity, LD50 [6]: 1300.0 mg/kg

SMILES: Cn1c(=O)[nH]c(=O)c2c1ncn2CCCCN1CCN(C(c2ccccc2)c2ccccc2)CC1.O=C(O)CCC(=O)O [Succinate, 7-/4-(4-benzhydrylpiperazinyl-1)butyl/-3-methylxanthine succinate]
- pH of aqueous solution [7]: 4.85
- Thermal stability [8]: good thermal stability
